According to paper PMC8708872, “Discovery of a Novel Template, 7-Substituted 7-Deaza-4′-Thioadenosine Derivatives as Multi-Kinase Inhibitors” (Pharmaceuticals, 2021):

Assays:
DYRK1B = target: T1, DYRK1B (Homo sapiens, UniProt Q9Y463); test: Kinase inhibition profile, KINOMEscan 11-point dose response; format: binding
T1 construct: purchased Eurofins DiscoverX Corporation

[1] = system: human normal dermal fibroblast cells; test: Antiproliferative activity against normal cells; format: cell-based; conditions: cultured human normal primary dermal fibroblast cells; read-out: IC50 growth inhibition, normal dermal fibroblast cells
CYP2D6 = target: T2, CYP2D6 (Homo sapiens, UniProt P10635); test: CYP inhibition assay; format: in vitro ADME; conditions: human liver microsomes
T2 construct: Human liver microsomes (0.25 mg/mL); from tissue; host or cells: human liver microsomes
T2 sequence (P10635 whole entry): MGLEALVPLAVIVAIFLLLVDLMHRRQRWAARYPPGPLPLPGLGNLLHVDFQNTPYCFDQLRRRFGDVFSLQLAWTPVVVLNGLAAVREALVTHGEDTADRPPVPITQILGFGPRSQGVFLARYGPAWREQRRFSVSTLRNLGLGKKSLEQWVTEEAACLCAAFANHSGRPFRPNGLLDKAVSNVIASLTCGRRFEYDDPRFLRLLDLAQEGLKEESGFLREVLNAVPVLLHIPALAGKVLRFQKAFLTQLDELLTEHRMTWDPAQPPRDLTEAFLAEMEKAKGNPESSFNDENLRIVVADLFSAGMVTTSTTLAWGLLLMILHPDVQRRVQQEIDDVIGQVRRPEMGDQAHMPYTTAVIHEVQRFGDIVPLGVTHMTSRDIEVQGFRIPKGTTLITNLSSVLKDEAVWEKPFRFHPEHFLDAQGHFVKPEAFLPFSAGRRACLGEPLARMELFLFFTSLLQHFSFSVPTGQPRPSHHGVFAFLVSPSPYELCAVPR

CYP2C9 = target: T3, CYP2C9 (Homo sapiens, UniProt P11712); test: CYP inhibition assay; format: in vitro ADME; conditions: human liver microsomes
T3 construct: Human liver microsomes (0.25 mg/mL); from tissue; host or cells: human liver microsomes
Procedure: (§1) Human liver microsomes (0.25 mg/mL), 0.1 M phosphate buffer (pH 7.4), a cocktail of five […] substrates (Phenacetin 50 μM, Diclofenac 10 μM, S-mephenytoin 100 μM, Dextromethorphan 5 μM, Midazolam 2.5 μM), and test compound (10 μM concentration) was pre-incubated for 5 min at 37 °C. NADPH generation system solution was added and incubated for 15 min at 37 °C. In order to terminate the reaction, acetonitrile solution containing an internal standard (Terfenadine) was added and centrifuged for 5 min (14,000× g […], 4 °C). The supernatant was injected into the LC-MS/MS system to analyze the metabolites of the substrates simultaneously. Metabolites of each substrate produced during the reaction were analyzed using the Shimadzu Nexera XR system and TSQ vantage (Thermo). Kinetex C18 column (2.1 × 100 mm, 2.6 μm particle size; Phenomenex, USA) was used for HPLC. The mobile phase used contained 0.1% formic acid in distilled water (A) and 0.1% formic acid containing acetonitrile (B). The generated metabolites were quantified using MRM (Multiple Reaction Monitoring) and Xcalibur (version 1.6.1) was used for data analysis.

CYP2C19 = target: T4, CYP2C19 (Homo sapiens, UniProt P33261); test: CYP inhibition assay; format: in vitro ADME; conditions: human liver microsomes
T4 construct: Human liver microsomes (0.25 mg/mL); from tissue; host or cells: human liver microsomes
Procedure: as §1

CYP1A2 = target: T5, CYP1A2 (Homo sapiens, UniProt P05177); test: CYP inhibition assay; format: in vitro ADME; conditions: human liver microsomes
T5 construct: Human liver microsomes (0.25 mg/mL); from tissue; host or cells: human liver microsomes
Procedure: as §1

KM12 = test: Antiproliferative activity against KM12; format: cell-based; conditions: Homo sapiens, colon cancer cell line highly expressing NTRK1/2/3 and DYRK3, read-out: IC50 cell growth of KM12
ACHN = test: Antiproliferative activity against ACHN; format: cell-based; conditions: Homo sapiens, renal cancer cell line expressing CK1δ and DYRK2, read-out: IC50 cell growth of ACHN
CSNK1G2 = target: T6, CSNK1G2 (Homo sapiens, UniProt P78368); test: Kinome scan; format: binding; conditions: 1000 nM
T6 construct: purchased Eurofins DiscoverX Corporation
Procedure: (§2) The kinome scan assays were carried out at Eurofins DiscoverX Corporation. For kinome scan profiling of compound 1g, it was screened at 1μM against 96 kinases (N = 2 independent experiments). The results for binding interactions are reported as % inhibition, where higher values indicate strong affinity; see the Supporting Information, Table S1 for full kinome profile.

PDGFRA = target: T7, PDGFRA (Homo sapiens, UniProt P16234); test: Kinome scan; format: binding; conditions: 1000 nM
T7 construct: purchased Eurofins DiscoverX Corporation
T7 sequence (P16234 24-1089): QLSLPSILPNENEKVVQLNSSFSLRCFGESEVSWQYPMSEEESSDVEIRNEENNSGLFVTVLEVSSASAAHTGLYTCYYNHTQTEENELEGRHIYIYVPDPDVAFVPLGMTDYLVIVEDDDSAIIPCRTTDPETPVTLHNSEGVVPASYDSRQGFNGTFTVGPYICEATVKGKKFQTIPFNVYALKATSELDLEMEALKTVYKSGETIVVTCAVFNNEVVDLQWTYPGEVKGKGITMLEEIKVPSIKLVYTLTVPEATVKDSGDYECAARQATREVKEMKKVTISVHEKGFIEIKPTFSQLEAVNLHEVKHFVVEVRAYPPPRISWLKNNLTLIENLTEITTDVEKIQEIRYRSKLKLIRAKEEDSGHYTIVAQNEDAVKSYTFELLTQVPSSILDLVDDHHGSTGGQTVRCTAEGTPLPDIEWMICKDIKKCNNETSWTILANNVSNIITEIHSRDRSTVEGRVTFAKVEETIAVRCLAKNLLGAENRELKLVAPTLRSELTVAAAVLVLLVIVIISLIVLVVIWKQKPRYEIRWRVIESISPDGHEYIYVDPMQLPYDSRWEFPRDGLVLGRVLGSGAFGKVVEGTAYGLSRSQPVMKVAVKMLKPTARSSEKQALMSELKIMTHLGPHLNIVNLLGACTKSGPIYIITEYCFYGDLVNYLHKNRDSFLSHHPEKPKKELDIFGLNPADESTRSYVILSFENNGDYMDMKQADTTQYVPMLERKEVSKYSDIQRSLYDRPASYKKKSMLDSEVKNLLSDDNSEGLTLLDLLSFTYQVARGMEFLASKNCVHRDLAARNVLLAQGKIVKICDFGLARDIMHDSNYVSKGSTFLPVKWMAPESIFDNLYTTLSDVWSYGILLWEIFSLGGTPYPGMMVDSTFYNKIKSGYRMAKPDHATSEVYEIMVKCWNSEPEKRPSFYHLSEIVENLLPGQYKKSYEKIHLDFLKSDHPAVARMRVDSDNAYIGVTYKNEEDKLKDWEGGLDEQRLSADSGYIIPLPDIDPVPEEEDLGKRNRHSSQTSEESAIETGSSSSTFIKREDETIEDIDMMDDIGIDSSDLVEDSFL
Procedure: as §2

MEK1 = target: T8, MEK1 (Homo sapiens, UniProt Q02750); test: Kinome scan; format: binding; conditions: 1000 nM
T8 construct: purchased Eurofins DiscoverX Corporation
Procedure: as §2

BMPR2 = target: T9, BMPR2 (Homo sapiens, UniProt Q13873); test: Kinome scan; format: binding; conditions: 1000 nM
T9 construct: purchased Eurofins DiscoverX Corporation
Procedure: as §2

AKT1 = target: T10, AKT1 (Homo sapiens, UniProt P31749); test: Kinome scan; format: binding; conditions: 1000 nM
T10 construct: purchased Eurofins DiscoverX Corporation
T10 sequence (P31749 whole entry): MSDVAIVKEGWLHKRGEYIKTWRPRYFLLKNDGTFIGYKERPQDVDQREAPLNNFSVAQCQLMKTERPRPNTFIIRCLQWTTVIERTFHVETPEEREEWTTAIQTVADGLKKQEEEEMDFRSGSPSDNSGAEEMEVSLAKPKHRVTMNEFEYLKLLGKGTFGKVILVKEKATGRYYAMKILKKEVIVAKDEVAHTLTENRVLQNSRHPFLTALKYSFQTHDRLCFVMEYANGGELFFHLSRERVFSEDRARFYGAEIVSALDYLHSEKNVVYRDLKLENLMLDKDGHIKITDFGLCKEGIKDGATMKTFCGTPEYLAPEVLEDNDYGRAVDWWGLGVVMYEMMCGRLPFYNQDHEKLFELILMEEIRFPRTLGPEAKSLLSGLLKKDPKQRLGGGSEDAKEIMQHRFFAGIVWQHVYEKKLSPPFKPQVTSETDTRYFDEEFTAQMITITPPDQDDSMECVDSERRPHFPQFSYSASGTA
Procedure: as §2

TSSK1B = target: T11, TSSK1B (Homo sapiens, UniProt Q9BXA7); test: Kinome scan; format: binding; conditions: 1000 nM
T11 construct: purchased Eurofins DiscoverX Corporation
Procedure: as §2

FAK = target: T12, FAK (Homo sapiens, UniProt Q05397); test: Kinome scan; format: binding; conditions: 1000 nM
T12 construct: purchased Eurofins DiscoverX Corporation
Procedure: as §2

SRPK3 = target: T13, SRPK3 (Homo sapiens, UniProt Q9UPE1); test: Kinome scan; format: binding; conditions: 1000 nM
T13 construct: purchased Eurofins DiscoverX Corporation
Procedure: as §2

SNARK = target: T14, SNARK (Homo sapiens, UniProt Q9H093); test: Kinome scan; format: binding; conditions: 1000 nM
T14 construct: purchased Eurofins DiscoverX Corporation
Procedure: as §2

[2] = target: T15, JAK2(JH1domain-catalytic) (Homo sapiens, UniProt O60674); test: Kinome scan; format: binding; conditions: 1000 nM
T15 construct: JAK2(JH1domain-catalytic); purchased Eurofins DiscoverX Corporation
Procedure: as §2

GSK3B = target: T16, GSK3B (Homo sapiens, UniProt P49841); test: Kinome scan; format: binding; conditions: 1000 nM
T16 construct: purchased Eurofins DiscoverX Corporation
Procedure: as §2

TIE2 = target: T17, TIE2 (Homo sapiens, UniProt Q02763); test: Kinome scan; format: binding; conditions: 1000 nM
T17 construct: purchased Eurofins DiscoverX Corporation
Procedure: as §2

IGF1R = target: T18, IGF1R (Homo sapiens, UniProt P08069); test: Kinome scan; format: binding; conditions: 1000 nM
T18 construct: purchased Eurofins DiscoverX Corporation
Procedure: as §2

KIT(V559D,T670I) = target: T19, KIT(V559D,T670I) (Homo sapiens, UniProt P10721, T670I/V559D); test: Kinome scan; format: binding; conditions: 1000 nM
T19 construct: purchased Eurofins DiscoverX Corporation
T19 sequence (P10721 26-976 V559D/T670I): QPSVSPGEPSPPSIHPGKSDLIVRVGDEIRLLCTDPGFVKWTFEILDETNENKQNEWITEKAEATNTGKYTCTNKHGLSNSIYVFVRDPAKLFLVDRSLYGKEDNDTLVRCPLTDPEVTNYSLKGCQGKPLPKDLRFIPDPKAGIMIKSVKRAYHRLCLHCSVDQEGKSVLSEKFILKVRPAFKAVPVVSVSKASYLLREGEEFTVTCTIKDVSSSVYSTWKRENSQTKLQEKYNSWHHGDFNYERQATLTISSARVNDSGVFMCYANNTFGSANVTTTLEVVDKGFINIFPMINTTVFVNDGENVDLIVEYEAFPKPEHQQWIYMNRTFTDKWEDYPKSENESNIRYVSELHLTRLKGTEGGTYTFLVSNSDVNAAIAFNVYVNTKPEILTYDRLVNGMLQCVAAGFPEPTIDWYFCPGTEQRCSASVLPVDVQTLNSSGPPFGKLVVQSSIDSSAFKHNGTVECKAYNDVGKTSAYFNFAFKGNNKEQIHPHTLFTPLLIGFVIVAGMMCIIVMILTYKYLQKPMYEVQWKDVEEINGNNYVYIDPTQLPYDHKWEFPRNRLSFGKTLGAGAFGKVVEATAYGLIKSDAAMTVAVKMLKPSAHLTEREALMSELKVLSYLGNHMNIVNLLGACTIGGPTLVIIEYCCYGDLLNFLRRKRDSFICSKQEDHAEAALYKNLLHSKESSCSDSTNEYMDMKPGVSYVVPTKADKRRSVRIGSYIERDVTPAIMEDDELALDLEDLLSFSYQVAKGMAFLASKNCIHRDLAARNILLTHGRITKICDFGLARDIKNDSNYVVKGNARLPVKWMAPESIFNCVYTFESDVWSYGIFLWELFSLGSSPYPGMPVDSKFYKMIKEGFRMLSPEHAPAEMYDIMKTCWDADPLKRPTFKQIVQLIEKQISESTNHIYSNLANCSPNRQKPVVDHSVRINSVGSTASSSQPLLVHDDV
Procedure: as §2

CSF1R = target: T20, CSF1R (Homo sapiens, UniProt P07333); test: Kinome scan; format: binding; conditions: 1000 nM
T20 construct: purchased Eurofins DiscoverX Corporation
Procedure: as §2

TRKA = target: T21, TRKA (Homo sapiens, UniProt P04629); test: Kinase inhibition profile, KINOMEscan 11-point dose response; format: binding
T21 construct: purchased Eurofins DiscoverX Corporation
T21 sequence (P04629 33-796): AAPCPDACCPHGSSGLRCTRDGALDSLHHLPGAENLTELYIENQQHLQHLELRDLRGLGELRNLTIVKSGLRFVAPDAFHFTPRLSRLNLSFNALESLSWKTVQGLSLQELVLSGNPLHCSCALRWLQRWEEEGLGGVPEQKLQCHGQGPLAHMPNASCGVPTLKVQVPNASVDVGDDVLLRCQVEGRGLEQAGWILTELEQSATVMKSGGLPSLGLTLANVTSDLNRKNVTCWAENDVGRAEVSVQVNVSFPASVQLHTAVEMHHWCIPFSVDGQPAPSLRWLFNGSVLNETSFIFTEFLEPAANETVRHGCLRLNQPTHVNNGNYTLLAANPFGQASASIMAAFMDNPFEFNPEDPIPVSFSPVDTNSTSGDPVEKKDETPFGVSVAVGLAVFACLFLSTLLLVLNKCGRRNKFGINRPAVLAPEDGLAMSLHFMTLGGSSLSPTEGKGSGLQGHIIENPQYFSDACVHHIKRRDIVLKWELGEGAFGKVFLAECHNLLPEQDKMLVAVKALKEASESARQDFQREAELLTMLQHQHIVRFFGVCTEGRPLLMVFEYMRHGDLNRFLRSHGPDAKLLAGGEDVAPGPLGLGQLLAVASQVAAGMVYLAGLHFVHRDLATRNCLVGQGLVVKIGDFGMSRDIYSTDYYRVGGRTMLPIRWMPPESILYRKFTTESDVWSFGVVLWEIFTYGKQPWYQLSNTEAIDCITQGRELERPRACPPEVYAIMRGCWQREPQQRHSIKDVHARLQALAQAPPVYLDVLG

CK1δ = target: T22, CK1δ (Homo sapiens, UniProt P48730); test: as above; format: binding
T22 construct: purchased Eurofins DiscoverX Corporation
T22 sequence (P48730 whole entry): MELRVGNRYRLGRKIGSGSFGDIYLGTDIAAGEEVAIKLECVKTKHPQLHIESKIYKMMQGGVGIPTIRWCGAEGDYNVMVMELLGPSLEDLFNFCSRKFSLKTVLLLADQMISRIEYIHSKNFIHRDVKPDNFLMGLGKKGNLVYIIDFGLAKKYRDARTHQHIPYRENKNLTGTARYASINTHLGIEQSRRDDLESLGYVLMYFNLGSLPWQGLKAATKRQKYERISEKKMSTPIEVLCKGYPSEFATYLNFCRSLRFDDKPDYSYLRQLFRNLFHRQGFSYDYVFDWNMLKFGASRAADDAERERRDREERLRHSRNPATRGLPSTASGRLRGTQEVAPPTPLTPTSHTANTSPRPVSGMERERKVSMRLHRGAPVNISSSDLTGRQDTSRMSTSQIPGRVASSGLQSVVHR

[3] = 11-point 3-fold serial dilution

T1 sequence (Q9Y463 whole entry): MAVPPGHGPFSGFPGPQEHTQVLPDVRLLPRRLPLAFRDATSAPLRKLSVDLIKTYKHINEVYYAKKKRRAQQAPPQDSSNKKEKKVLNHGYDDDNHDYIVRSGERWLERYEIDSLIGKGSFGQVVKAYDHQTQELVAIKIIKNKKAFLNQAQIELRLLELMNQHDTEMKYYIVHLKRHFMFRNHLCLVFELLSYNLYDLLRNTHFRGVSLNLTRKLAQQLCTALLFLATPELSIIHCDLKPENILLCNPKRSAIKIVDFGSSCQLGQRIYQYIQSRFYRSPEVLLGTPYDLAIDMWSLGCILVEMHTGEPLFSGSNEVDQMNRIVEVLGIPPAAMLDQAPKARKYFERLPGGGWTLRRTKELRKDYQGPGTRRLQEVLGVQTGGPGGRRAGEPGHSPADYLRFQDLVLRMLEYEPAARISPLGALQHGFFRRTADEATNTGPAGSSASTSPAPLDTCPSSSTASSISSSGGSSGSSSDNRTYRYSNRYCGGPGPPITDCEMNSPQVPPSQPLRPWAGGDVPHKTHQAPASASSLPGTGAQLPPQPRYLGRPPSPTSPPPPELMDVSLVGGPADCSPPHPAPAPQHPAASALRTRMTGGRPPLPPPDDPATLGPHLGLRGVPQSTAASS

IC50 (DYRK1B; [3]): 33 nM | Ki (DYRK1B; by Cheng-Prusoff equation): 33 nM | IC50 (CYP2D6): > 20000 nM | IC50 (CYP2C9): > 20000 nM | IC50 (CYP2C19): > 20000 nM | IC50 (CYP1A2): > 20000 nM | IC50 (ACHN): ~40 nM | inhibition at 1 µM (CSNK1G2): 54% | inhibition at 1 µM (PDGFRA): 0% | inhibition at 1 µM (MEK1): 74% | inhibition at 1 µM (BMPR2): 1% | inhibition at 1 µM (AKT1): 7% | inhibition at 1 µM (TSSK1B): 16% | inhibition at 1 µM (FAK): 0% | inhibition at 1 µM (SRPK3): 6% | inhibition at 1 µM (SNARK): 0% | inhibition at 1 µM [2]: 35% | inhibition at 1 µM (GSK3B): 0% | inhibition at 1 µM (TIE2): 6% | inhibition at 1 µM (IGF1R): 7% | inhibition at 1 µM (KIT(V559D,T670I)): 17% | inhibition at 1 µM (CSF1R): 20% | IC50 (TRKA; [3]): 148 nM | Ki (TRKA; by Cheng-Prusoff equation): 296 nM | IC50 (CK1δ; [3]): 80 nM | Ki (CK1δ; by Cheng-Prusoff equation): 80 nM
SMILES: C#Cc1cn([C@@H]2S[C@H](CO)[C@@H](O)[C@H]2O)c2ncnc(N)c12 [Compound 1g, (2R,3R,4S,5R)-2-(4-Amino-5-ethynyl-7H-pyrrolo[2,3-d]pyrimidin-7-yl)-5-(hydroxymethyl)tetrahydrothiophene-3,4-diol]
IC50 [1]: 150 nM | IC50 (KM12): 70 nM
